Experiment [1] addresses Ras-related protein Rab-6A (Homo sapiens, UniProt P20340). Briefly: Binding affinity to RAB6A (unknown origin) assessed as inhibition of RAB6A/[…] protein-protein interaction.
The target of experiment [2] is T1, Menin (Homo sapiens, UniProt O00255).
T1 sequence (O00255 whole entry): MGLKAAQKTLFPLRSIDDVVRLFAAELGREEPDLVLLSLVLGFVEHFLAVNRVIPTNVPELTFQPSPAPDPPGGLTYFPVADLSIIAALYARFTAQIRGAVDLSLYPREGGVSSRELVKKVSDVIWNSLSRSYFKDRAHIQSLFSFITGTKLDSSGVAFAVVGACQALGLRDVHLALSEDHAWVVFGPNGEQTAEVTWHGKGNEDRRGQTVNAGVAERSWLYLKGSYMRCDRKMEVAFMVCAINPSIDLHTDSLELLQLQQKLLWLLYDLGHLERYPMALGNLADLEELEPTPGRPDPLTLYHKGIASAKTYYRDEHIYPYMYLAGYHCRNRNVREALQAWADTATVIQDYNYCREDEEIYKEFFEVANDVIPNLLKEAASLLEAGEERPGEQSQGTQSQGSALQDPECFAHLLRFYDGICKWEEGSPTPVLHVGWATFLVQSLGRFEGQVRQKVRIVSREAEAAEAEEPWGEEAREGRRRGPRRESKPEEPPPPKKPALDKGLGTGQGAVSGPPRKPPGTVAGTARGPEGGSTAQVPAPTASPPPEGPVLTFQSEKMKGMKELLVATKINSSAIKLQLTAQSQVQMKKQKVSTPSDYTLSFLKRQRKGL
Briefly: Binding affinity to human Menin expressed in Escherichia coli BL21 (DE3) assessed as inhibition of Menin/MLL1 protein-protein at 20 degree C by isothermal titration calorimetry. Background: ITC needs no label: the signal is the heat of the interaction.

Experiment [3] has as its target T2, BTB/POZ domain-containing protein KCTD11 (Homo sapiens, UniProt Q693B1).
T2 sequence (Q693B1 whole entry): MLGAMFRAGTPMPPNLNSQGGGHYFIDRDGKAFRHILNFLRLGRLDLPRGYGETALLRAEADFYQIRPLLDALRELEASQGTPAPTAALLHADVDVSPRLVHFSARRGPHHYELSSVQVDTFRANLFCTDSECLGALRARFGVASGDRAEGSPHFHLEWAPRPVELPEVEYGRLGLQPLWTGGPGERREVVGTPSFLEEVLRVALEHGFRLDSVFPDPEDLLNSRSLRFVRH
Briefly: Binding affinity to recombinant N-terminal poly His-Trx tagged KCTD11 (15 to 115 residues) (unknown origin) expressed in Escherichia coli assessed as inhibition of KCTD11/cullin3a protein-protein interaction by fluorescence polarization assay. (In general: Polarisation of emitted light reports the rotation of a fluorescent probe.)

Experiment [4] can be described thus: Binding affinity to Plasmodium falciparum N-terminal His6-tagged MTIP expressed in Escherichia coli BL21 (DE3) assessed as inhibition of MTIP/MyoA protein-protein interaction at 303 K by isothermal titration calorimetry.
The target of experiment [5] is T3, E3 ubiquitin-protein ligase Mdm2 (Homo sapiens, UniProt Q00987). Briefly: Competitive binding affinity to 6xHis-taged MDM2 (unknown origin) expressed in Escherichia coli Gold (DE3) assessed as reduction in STD signal intensity at 0.1 mM in presence of 0.1 mM nutlin-3a by STD-NMR analysis.
Target sequence in this assay (Q00987 whole entry, looked up, the tested form may be a part): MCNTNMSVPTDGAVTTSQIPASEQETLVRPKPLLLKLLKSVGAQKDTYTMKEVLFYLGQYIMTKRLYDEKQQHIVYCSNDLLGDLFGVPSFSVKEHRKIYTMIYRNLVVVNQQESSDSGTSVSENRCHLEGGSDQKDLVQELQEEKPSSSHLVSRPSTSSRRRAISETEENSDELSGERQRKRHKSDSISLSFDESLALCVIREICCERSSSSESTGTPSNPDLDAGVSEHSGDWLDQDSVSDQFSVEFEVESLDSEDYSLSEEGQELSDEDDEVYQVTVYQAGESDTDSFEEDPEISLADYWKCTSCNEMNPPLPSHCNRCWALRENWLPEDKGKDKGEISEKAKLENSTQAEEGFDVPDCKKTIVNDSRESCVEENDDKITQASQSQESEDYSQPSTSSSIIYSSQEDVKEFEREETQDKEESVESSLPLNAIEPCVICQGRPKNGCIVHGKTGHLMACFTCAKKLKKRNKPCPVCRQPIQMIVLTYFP
For experiment [6], the target named is T3, E3 ubiquitin-protein ligase Mdm2. Briefly: Binding affinity to N-terminal 6xHis-tagged MDM2 (unknown origin) (1 to 126 residues) assessed as inhibition of MDM2/p53 protein-protein interaction by fluorescence anisotrophy assay.
Target sequence in this assay (Q00987 whole entry, the tested form may be a part): as the sequence (Q00987 whole entry, looked up, the tested form may be a part) above
The target is the same in experiment [7]. Briefly: Binding affinity to 6xHis-taged MDM2 (unknown origin) expressed in Escherichia coli Gold (DE3) assessed as change in signal intensity at 0.1 mM by WATERLOGSY-NMR analysis.
Target sequence in this assay (Q00987 whole entry, looked up, the tested form may be a part): as above
Experiment [8] shares this target. Briefly: Competitive binding affinity to 6xHis-taged MDM2 (unknown origin) expressed in Escherichia coli Gold (DE3) assessed as reduction in signal intensity at 0.1 mM in presence of 0.1 mM nutlin-3a by WATERLOGSY-NMR analysis.
Target sequence in this assay (Q00987 whole entry, looked up, the tested form may be a part): as above
The target is the same in experiment [9]. Briefly: Binding affinity to 6xHis-taged MDM2 (unknown origin) expressed in Escherichia coli Gold (DE3) assessed as observation of positive signal at 0.1 mM by STD-NMR analysis.
Target sequence in this assay (Q00987 whole entry, looked up, the tested form may be a part): as above
Experiment [10] has the same target. Briefly: Binding affinity to 6xHis-taged MDM2 (unknown origin) expressed in Escherichia coli Gold (DE3) assessed as increase in signal-to-noise ratio at 0.1 mM by STD-NMR analysis.
Target sequence in this assay (Q00987 whole entry, looked up, the tested form may be a part): as above
Experiment [11] shares this target. Briefly: Competitive binding affinity to 6xHis-taged MDM2 (unknown origin) expressed in Escherichia coli Gold (DE3) assessed as observation of residual signal at 0.1 mM in presence of 0.1 mM nutlin-3a by STD-NMR analysis.
Target sequence in this assay (Q00987 whole entry, looked up, the tested form may be a part): as above
Experiment [12] has the same target. Briefly: Binding affinity to 6xHis-taged MDM2 (unknown origin) expressed in Escherichia coli Gold (DE3) assessed as inversion of signal intensity from negative to positive at 0.1 mM by WATERLOGSY-NMR analysis.
Experiment [13] in a line: Binding affinity to IPTG-induced […] human TEV cleavage site-fused- GST-tagged beta-catenin (134 to 665 residues) assessed as inhibition of beta-catenin/axin protein-protein interaction after 45 mins by fluorescence polarization assay.
In experiment [14] the target is T4, Estrogen receptor (Homo sapiens, UniProt P03372).
T4 sequence (P03372 whole entry): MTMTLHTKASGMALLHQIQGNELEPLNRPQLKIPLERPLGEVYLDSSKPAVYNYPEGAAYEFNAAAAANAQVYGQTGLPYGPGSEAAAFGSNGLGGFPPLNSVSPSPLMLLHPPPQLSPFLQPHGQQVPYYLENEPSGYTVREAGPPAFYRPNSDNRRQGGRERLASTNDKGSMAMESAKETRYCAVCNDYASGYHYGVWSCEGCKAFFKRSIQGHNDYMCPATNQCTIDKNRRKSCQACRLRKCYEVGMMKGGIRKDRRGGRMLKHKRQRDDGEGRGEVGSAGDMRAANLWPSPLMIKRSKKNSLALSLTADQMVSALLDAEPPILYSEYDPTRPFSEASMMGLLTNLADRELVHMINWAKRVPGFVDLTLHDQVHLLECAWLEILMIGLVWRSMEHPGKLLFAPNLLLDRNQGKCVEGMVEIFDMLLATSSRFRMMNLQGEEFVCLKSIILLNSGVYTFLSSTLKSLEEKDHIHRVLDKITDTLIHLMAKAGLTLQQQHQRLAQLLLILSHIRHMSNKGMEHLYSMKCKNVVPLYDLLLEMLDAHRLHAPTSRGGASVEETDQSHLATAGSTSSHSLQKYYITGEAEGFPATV
Briefly: Binding affinity to IPTG-induced human ER alpha LBD (301 to 553 residues) expressed in Escherichia coli BL21 (DE3) assessed as inhibition of ER alpha/NR2A protein-protein interaction at 25 degree by surface plasmon resonance assay. In general terms: In SPR one partner is held on a chip, and binding of the other changes the refractive index at the surface.

SMILES strings stand for the structures. The source made the active and inactive calls. The rule behind the calls is not given here. Peptide text beside a SMILES is read from it.

Ras-related protein Rab-6A, sequence (P20340 whole entry): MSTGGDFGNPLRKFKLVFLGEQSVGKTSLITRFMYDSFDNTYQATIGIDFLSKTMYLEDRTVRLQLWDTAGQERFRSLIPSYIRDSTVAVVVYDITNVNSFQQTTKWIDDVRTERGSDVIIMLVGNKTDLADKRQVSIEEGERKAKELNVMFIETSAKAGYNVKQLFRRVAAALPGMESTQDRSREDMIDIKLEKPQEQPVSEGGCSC

The term Kd denotes the free concentration of one partner at which half of the binding sites on the other are occupied at equilibrium, for simple one-to-one binding. As for `CC(C)C[C@H](NC(=O)[C@H](CC(C)C)NC(=O)[C@H](Cc1cnc[nH]1)NC(=O)[C@H](Cc1ccc(O)cc1)NC(=O)[C@H](CC(C)C)NC(=O)[C@H](Cc1ccccc1)NC(=O)[C@H](CCC(N)=O)NC(=O)[C@H](CCC(=O)O)NC(=O)[C@H](CCCCN)NC(=O)[C@H](CCC(=O)O)NC(=O)[C@H](CC(=O)O)NC(=O)[C@@H](N)CC(=O)O)C(=O)N[C@@H](CO)C(=O)N[C@@H](Cc1ccccc1)C(=O)N[C@@H](CC(N)=O)C(=O)N[C@@H](C)C(=O)N[C@H](C(=O)O)C(C)C` (H-DDEKEQFLYHLLSFNAV-OH), the Kd in experiment [1] was 20000 nM.

Take `C[C@H](NC(=O)[C@@H]1CCCN1C(=O)[C@H](Cc1ccccc1)NC(=O)[C@H](CCCNC(=N)N)NC(=O)[C@H](Cc1c[nH]c2ccccc12)NC(=O)[C@@H](N)CCCNC(=N)N)C(=O)N[C@@H](CCCNC(=N)N)C(=O)N1CCC[C@H]1C(=O)NCC(=O)N[C@H](C(=O)N[C@H](C(=O)NCC(=O)NCC(=O)NCC(=O)NCC(=O)NCC(=O)NCC(=O)NCC(=O)N[C@@H](CCCNC(=N)N)C(=O)N[C@@H](CCCNC(=N)N)C(=O)O)[C@@H](C)O)[C@@H](C)O` (H-RWRFPARPGTTGGGGGGGRR-OH): in experiment [2], the Kd amounted to 82 nM.

As for `CSCC[C@H](NC(=O)[C@@H](NC(=O)[C@H](Cc1ccc(O)cc1)NC(=O)[C@H](C)NC(=O)[C@H](CC(N)=O)NC(=O)[C@H](CCCNC(=N)N)NC(=O)[C@H](Cc1ccc(O)cc1)NC(=O)[C@H](CC(C)C)NC(=O)[C@H](CCC(=O)O)NC(=O)[C@H](CCC(=O)O)NC(=O)[C@H](Cc1ccccc1)NC(=O)[C@H](CO)NC(=O)[C@H](CC(C)C)NC(=O)CNC(=O)[C@H](CO)NC(=O)[C@@H](N)CC(N)=O)[C@@H](C)O)C(=O)N[C@H](C(=O)N[C@@H](CC(C)C)C(=O)N[C@@H](Cc1cnc[nH]1)C(=O)N[C@@H](CCCCN)C(=O)O)C(C)C` (H-NSGLSFEELYRNAYTMVLHK-OH), in experiment [3], the Kd came to 497 nM.

With `CC[C@H](C)[C@H](NC(=O)[C@H](Cc1cnc[nH]1)NC(=O)[C@H](C)NC(=O)[C@H](CCC(N)=O)NC(=O)[C@@H](NC(=O)[C@H](CCCNC(=N)N)NC(=O)[C@H](CC(C)C)NC(=O)[C@H](CC(C)C)NC(=O)[C@H](CO)NC(=O)[C@@H]1CCCN1C(=O)[C@@H](NC(=O)[C@@H](N)CC(N)=O)[C@@H](C)CC)C(C)C)C(=O)N[C@@H](CCCNC(=N)N)C(=O)N[C@@H](CCCCN)C(=O)N[C@@H](CCCCN)C(=O)N[C@@H](CCSC)C(=O)N[C@H](C(=O)N[C@@H](C)C(=O)N[C@@H](CCC(N)=O)C(=O)O)C(C)C` (H-NIPSLLRVQAHIRKKMVAQ-OH), the Kd in experiment [4] was 85 nM.

In the case of `CC(C)C[C@H](NC(=O)[C@H](CC(C)C)NC(=O)[C@H](CCCCN)NC(=O)[C@H](Cc1c[nH]c2ccccc12)NC(=O)[C@H](CC(C)C)NC(=O)[C@H](CC(=O)O)NC(=O)[C@H](CO)NC(=O)[C@@H](N)Cc1ccccc1)C(=O)O`, the result in [5], in [7], in experiment [8], in experiment [9] and in [10] was Active. Also, the Kd in experiment [6] stood at 800 nM.

Take `CC(C)C[C@H](NC(=O)[C@H](CCCCN)NC(=O)[C@H](Cc1c[nH]c2ccccc12)NC(=O)[C@H](CC(C)C)NC(=O)[C@H](CC(=O)O)NC(=O)[C@H](CO)NC(=O)[C@@H](N)Cc1ccccc1)C(=O)O` (H-FSDLWKL-OH): the outcome in experiment [5], in experiment [11], in experiment [8], in experiment [12], in [9] and in experiment [10] was Active. In addition, the Kd in [6] was 150000 nM.

For `CC[C@H](C)[C@H](NC(=O)[C@H](CO)NC(=O)[C@H](CCC(=O)O)NC(=O)[C@@H]1CCCN1C(=O)[C@H](CC(N)=O)NC(=O)[C@@H](N)CCC(=O)O)C(=O)N[C@@H](CC(C)C)C(=O)N[C@@H](CC(=O)O)C(=O)N[C@@H](CCC(=O)O)C(=O)N[C@@H](Cc1cnc[nH]1)C(=O)N[C@H](C(=O)N[C@@H](CCC(N)=O)C(=O)N[C@@H](CCCNC(=N)N)C(=O)N[C@H](C(=O)N[C@@H](CCSC)C(=O)O)C(C)C)C(C)C` (H-ENPESILDEHVQRVM-OH), the Kd in experiment [13] came to 5000 nM.

As to `CC[C@H](C)[C@H](NC(=O)[C@H](CCCCN)NC(=O)[C@@H](N)Cc1cnc[nH]1)C(=O)N[C@@H](CC(C)C)C(=O)N[C@@H](Cc1cnc[nH]1)C(=O)N[C@@H](CCCNC(=N)N)C(=O)N[C@@H](CC(C)C)C(=O)N[C@@H](CC(C)C)C(=O)N[C@@H](CCC(N)=O)C(=O)N[C@@H](CC(=O)O)C(=O)N[C@@H](CO)C(=O)O` (H-HKILHRLLQDS-OH), the Kd in experiment [14] was 2500 nM.

The values are drawn from ChEMBL document CHEMBL4613322, “HOPPI-NMR: Hot-Peptide-Based Screening Assay for Inhibitors of Protein-Protein Interactions by NMR” (ACS Med Chem Lett, 2020).
